Several values for one entry are separate records, joined by “and”; a condition that tells them apart may be missing. Equal entries are not always repeated.
Legend:
CB CD34+CD38−lin− cells = test: 7 day culture of CB CD34+CD38−lin− cells with TSF with and without ATRA (immunophenotype, CFC, morphology); type: cell-based, human
Protocol: (§1) Primary human BM and CB CD34^+CD38^−lin^− cells were placed in culture with 20 ng/mL thrombopoietin, 100 ng/mL SCF, and flt-3 ligand (TSF), a cytokine combination previously found to induce human stem and progenitor cell proliferation and differentiation in vitro (Chute et al, Blood 105:576-583 (2005), Chute et al, Stem ells 22:202-215 (2004)). In order to assess whether inhibition of ALDH activity could block the differentiation of human HSCs induced to proliferate by TSF, 1-2×10^4 BM or CB CD34^+CD38^−lin^− cells were cultured×7 days with IMDM, 10% FBS and 1% pcn/strp supplemented with TSF with and without 100 μM DEAB. At day 7, the progeny of all cultures were collected, washed×2 and cell counts were performed. A minimum of n=5 experiments was performed per culture condition to allow statistical comparisons to be performed. Immunophenotypic analysis was performed on progeny cells using anti-human CD34 and CD38 mAbs (Becton Dickinson) and isotype control IgG mAbs and compared with day 0 (input) staining. Fourteen day methylcellulose CFC assays (colony forming unit-granulocyte monocyte, CFU-GM, burst forming unit-erythroid, BFU-E, and colony forming unit-mix, CFU-Mix) were performed as we have previously described (Chute et al, Blood 100:4433-4439 (2002), Chute et al, Blood 105:576-583 (2005), Chute et al, Stem ells 22:202-215 (2004)) to compare the number of lineage committed CFCs within day 0 CD34^+CD38^−lin^− cells and their progeny. Morphologic analysis of day 0 CD34^+CD38^−lin^− cells and their progeny following 7 day culture was performed using Wrights-Geimsa staining and microscopic analysis under oil immersion (100×).
In order to assess the hematopoietic effects of retinoid agonists on purified human HSCs, BM and CB CD34^+CD38^−lin^− cells were placed in culture with TSF with and without 1 μM all-trans retinoic acid (ATRA), an agonist of RAR. Total cell expansion, immunophenotype, CFC content and morphologic analysis was performed on ATRA-treated progeny and compared with both day 0 CD34^+CD38^−lin^− populations and the progeny of TSF alone to assess the impact of retinoid agonism on the differentiation of human HSCs.

ALDH = ALDH activity by ALDEFLUOR staining of cultured CD34+CD38− cells; type: cell-based, human; conditions: 100 μM DEAB+TSF, 7 days, compared to day 0 or TSF alone, P=0.001
Protocol: (§2) Primary human BM and CB CD34^+CD38^−lin^− cells were placed in culture with 20 ng/mL thrombopoietin, 100 ng/mL SCF, and flt-3 ligand (TSF), a cytokine combination previously found to induce human stem and progenitor cell proliferation and differentiation in vitro (Chute et al, Blood 105:576-583 (2005), Chute et al, Stem ells 22:202-215 (2004)). In order to assess whether inhibition of ALDH activity could block the differentiation of human HSCs induced to proliferate by TSF, 1-2×10^4 BM or CB CD34^+CD38^−lin^− cells were cultured×7 days with IMDM, 10% FBS and 1% pcn/strp supplemented with TSF with and without 100 μM DEAB. At day 7, the progeny of all cultures were collected, washed×2 and cell counts were performed. A minimum of n=5 experiments was performed per culture condition to allow statistical comparisons to be performed. Immunophenotypic analysis was performed on progeny cells using anti-human CD34 and CD38 mAbs (Becton Dickinson) and isotype control IgG mAbs and compared with day 0 (input) staining. […]

[1] = tested on: BM and CB CD34+CD38−lin− cells; test: 7 day culture of BM and CB CD34+CD38−lin− cells with TSF with and without DEAB (cell counts, immunophenotype, morphology); type: cell-based, human
Protocol: as §1

BM CD34+CD38−lin− cells = test: Fourteen day methylcellulose CFC assay of culture progeny; type: cell-based, human; conditions: DEAB+TSF 7 days (TSF alone 5-fold increase vs input)
Protocol: as §2

[2] = tested on: CB CD34+CD38−lin− cells (SRCs); test: Long-term repopulating assay in NOD/SCID mice, CB cells (limiting dilution, SRC frequency); type: in vivo, human
Protocol: (§3) NOD/SCID mice (Schulz et al, J. Immunol. 154:180-191 (1995)) were transplanted with either day 0 FACS-sorted BM or CB CD34^+CD38^−lin− HSC-enriched cells or the progeny of CD34^+CD38^−lin− cells cultured with TSF alone or TSF supplemented with 100 μM DEAB. Cells were transplanted via tail vein injection after irradiating NOD/SCID mice with 300 cGy using an X-ray irradiator as previously described (Chute et al, Blood 100:4433-4439 (2002), Chute et al, Blood 105:576-583 (2005)). Day 0 CD34^+CD38^−lin− HSCs and their progeny were co-transplanted with 2×10^4 […] to facilitate engraftment as previously described (Bonnet et al, Bone Marrow Transpl. 23:203-209 (1999), Bhatia et al, Proc. Natl. Acad. Sci. USA 94:5320-5325 (1997)).
(§4) All mice in each group were sacrificed at week 8 and marrow samples were obtained by flushing their femurs with IMDM at 4° C. Red cells were lysed using red cell lysis buffer (Sigma-Aldrich) and flow cytometric analysis of human hematopoietic engraftment was performed as previously described using commercially available mAbs against human leukocyte differentiation antigens to identify engrafted human leukocytes and discriminate their hematopoietic lineages (Chute et al, Blood 100:4433-4439 (2002), Chute et al, Blood 105:576-583 (2005), Trischmann et al, J. Hematother. 2:305-313 (1993)).
(§5) Comparisons of data from in vitro experiments were made using the Student's t test. For purposes of the limiting dilution analysis, a transplanted mouse was scored as positively engrafted if ≧0.1% of the marrow cells expressed human-CD45 via high resolution FACS analysis. This criteria is consistent with previously published criteria for human cell repopulation in NOD/SCID mice (Chute et al, Blood 100:4433-4439 (2002), Dorrell et al, Blood 95:102-110 (2000)). SRC frequency in each cell source was calculated using the maximum likelihood estimator as described previously by Taswell (J. Immunol. 126:1614-1619 (1981), Wang et al, Blood 89:3919-3924 (1997), Ueda et al, J. Clin. Invest. 105:1013-1021 (2000)). Confidence intervals for the frequencies were calculated using the profile likelihood method, and the likelihood ratio test was used to confirm the fit of the model.

[3] = tested on: BM CD34+CD38−lin− cells (SRCs); test: Long-term repopulating assay in NOD/SCID mice, BM cells (SRC frequency); type: in vivo, human
Protocol: as §3, §4, §5

HOXB4 = test: Quantitative real-time PCR of HOXB4 in cultured CB CD34+CD38−lin− cells; type: cell-based, human; conditions: DEAB added to TSF (TSF alone 5-fold decrease vs day 0)
Protocol: (§6) Extraction of total RNA from Day 0 and Day 7 CB CD34^+ populations was done using a RNeasy Mini spin column (Qiagen, Valencia, Calif.) according to the manufacturer's recommended protocol. […] Briefly, total RNA was isolated from CD34^+CD38^−lin^− cells according to the manufacturer's instructions for the RNaqueous®-Micro (Ambion) and reversed-transcribed to cDNA using iScript™ cDNA synthesis Kit (Biorad, Hercules, Calif.). cDNA concentrations were measured with a fluorometer (Turner Designs, Sunnyvale, Calif.) using RiboGreen reagent (Invitrogen). PCR amplification reactions were performed in 13 μl and contained equal amounts of cDNAs, 6.5 μl of iQ SYBR green supermix (Bio-Rad), 0.2 μM of each forward and reverse gene-specific primers for genes of interest and the normalization gene 36B4. PCR was performed on an iCycler (Bio-Rad) according to the following cycling conditions: an initial cycle of 15 min at 95° C.; 45 cycles of 45 sec at 95° C., 15 sec at 55° C., and 15 sec at 72° C.; followed by a melt-curve analysis cycle with steps of 10 sec each at 0.5° C. increments from 60 to 95° C. Amplification rates were visualized and analyzed on ICYCLER IQ optical system software version 3.0 (Bio-Rad). Gene-specific primers were purchased from Integrated DNA Technologies (Coralville, Iowa).

Notch = test: Quantitative real-time PCR of Notch in cultured CB CD34+CD38−lin− cells; type: cell-based, human; conditions: DEAB+TSF
Protocol: as §6

[4] = progeny of DEAB+TSF cultures, cell dose 0.5-1×10^3, 8 weeks

For CC1=C(/C=C/C(C)=C/C=C/C(C)=C/C(=O)O)C(C)(C)CCC1 [ATRA, all-trans retinoic acid], the “HSC differentiation in presence of DEAB” value (CB CD34+CD38−lin− cells; 1 μM ATRA+100 μM DEAB+TSF) was “HSC differentiation occurred”, the “number of CFCs compared to TSF alone” value (CB CD34+CD38−lin− cells; ATRA+TSF treated cultures) was “decreased” and the “differentiation and maturation of human HSCs” value (CB CD34+CD38−lin− cells; ATRA, by day 7) was “induced pronounced differentiation and myeloid maturation”. For the same compound, the “CD34+CD38− cells remaining in culture” value (CB CD34+CD38−lin− cells; TSF+1 μM ATRA, day 7) was “no CD34^+CD38^− cells remained” and the “percentage of CD34+ cells relative to TSF alone” value (CB CD34+CD38−lin− cells; TSF+1 μM ATRA, day 7) was “declined”.
For CCN(CC)c1ccc(C=O)cc1 [DEAB], the “ALDH activity in CD34+CD38− cells” value (ALDH) was “significantly reduced”, the “absolute numbers of CD34+CD38− cells compared to day 0” value ([1]; 100 μM DEAB+TSF, 7 days (TSF alone 5-fold decrease)) was “maintenance” and the “mean total cell expansion” value ([1]; 100 μM DEAB+TSF, 7 days (TSF alone 15-fold)) was 4 fold. For the same compound, the “percentages of primitive CD34+CD38− cells in progeny” value ([1]; BM and CB cells, DEAB+TSF 7 days, compared to TSF alone, P=0.01 and P=0.02) was “significantly higher”, the “morphologic examination of progeny” value ([1]; DEAB+TSF cultures, Wrights-Giemsa staining, data not shown) was “predominance of cells with high nuclear:cytoplasmic ratios and prominent nucleoli” and the “CFC content of progeny” value (BM CD34+CD38−lin− cells) was “little CFC content”. The “fold increase in SRC frequency” value ([2]; DEAB+TSF versus day 0 cells or TSF alone) was 2 fold, the “multilineage differentiation in transplanted mice” value ([2]; mice transplanted with DEAB+TSF cultured cells, flow cytometry of BM) was “extensive CD34^+ progenitor cell, CD19^+ B lymphoid and CD 33/13^+ myeloid differentiation” and the “fold higher levels of huCD45+ cell engraftment” value [2, 4] was 4 fold. The “mean huCD45+ cell engraftment” value [2, 4] was 0.9%, the “mice showing huCD45+ cell repopulation at 8 weeks” value ([2]; progeny of DEAB+TSF cultures, cell dose 0.5-1×10^3, 9 of 17 mice (day 0 31%, TSF 18%)) was 53% and the “higher levels of huCD45+ cell engraftment versus day 0 or TSF” value ([2]; progeny of DEAB+TSF cultures, cell dose 2.5×10^3) was 1 log. For the same compound, the “mean huCD45+ cell engraftment” value ([2]; progeny of DEAB+TSF cultures, cell dose 2.5×10^3, 8 weeks (day 0 0.9%, TSF 0.7%)) was 8.0%, the “huCD45+ cell repopulation” value ([3]; cell dose 1-2.5×10^3, TSF+DEAB progeny) was “no huCD45^+ cell repopulation was detected” and the “transplanted mice with human repopulation (FIG. 4 legend)” value ([3]; progeny of 5×10^3 cells after DEAB+TSF culture) was 50-80%. For the same compound, the “mean huCD45+ cell engraftment” value ([3]; progeny of DEAB+TSF cultures, cell dose 5×10^3) was 0.1%, the “mice showing huCD45+ cell engraftment” value ([3]; progeny of DEAB+TSF cultures, cell dose 5×10^3, 3 of 6 mice (day 0 and TSF 0 of 5)) was 50% and the “HOXB4 expression relative to input levels” value (HOXB4) was 80% and 70%. For the same compound, the “Notch transcription compared to TSF alone” value (Notch) was “did not alter”.
